# Data: the supplement of paper PMC9663587
# Legend:
# [1] = compound: Cc1cc(Nc2ncc(Cl)c(Nc3ccccc3S(=O)(=O)C(C)C)n2)c(OC(C)C)cc1C1CCNCC1 [Ceritinib/LDK378]
# [2] = compound: CS(=O)(=O)N1CCN(Cc2cc3nc(-c4cccc5[nH]ncc45)nc(N4CCOCC4)c3s2)CC1 [Pictilisib/GDC0941]
# [3] = compound: CCc1cnn2c(NCc3ccc[n+]([O-])c3)cc(N3CCCC[C@H]3CCO)nc12
# [4] = compound: T1, CN(C)C(=O)c1cc2cnc(Nc3ccc(N4CCNCC4)cn3)nc2n1C1CCCC1 [LEE011/Ribociclib]
# [5] = compound: Cc1nn(C)c(COc2ccc(N3CCN(S(=O)(=O)N(C)C)CC3)cc2)c1-c1cccc2c(CCCOc3cccc4ccccc34)c(C(=O)O)n(CCN3CCOCC3)c12
# [6] = compound: COc1cccc2c1C(=O)c1c(O)c3c(c(O)c1C2=O)C[C@@](O)(C(=O)CO)C[C@@H]3O[C@H]1C[C@H](N)[C@H](O)[C@H](C)O1 [Doxorubicin]
# [7] = compound: CCc1cnn2c(NCc3ccc[n+]([O-])c3)cc(N3CCCC[C@H]3CCO)nc12; assay: increase in dead-cell fraction, 72 h; higher = more death;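 note: breast cancer cell lines in 384-well plates, stained with Hoechst plus LIVE/DEAD far red dye and imaged, cells above an LDR intensity threshold counted dead, Hoechst-negative corpses included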
# [8] = compound: T1, LEE011/Ribociclib; assay: as above
# [9] = compound: CCN1CCN(Cc2ccc(Nc3ncc(F)c(-c4cc(F)c5nc(C)n(C(C)C)c5c4)n3)nc2)CC1; assay: as above
# [10] = compound: C=CC(=O)Nc1ccc(C(=O)Nc2[nH]nc3c2CN(C(=O)N[C@H](CN(C)C)c2ccccc2)C3(C)C)cc1 [YKL-5-124]; assay: as above
# [11] = compound: CN(C)C/C=C/C(=O)Nc1ccc(C(=O)Nc2cccc(Nc3ncc(Cl)c(-c4c[nH]c5ccccc45)n3)c2)cc1 [THZ1]; assay: as above
# [12] = compound: CN(C)C/C=C/C(=O)Nc1ccc(C(=O)N2CCC[C@@H](Nc3ncc(Cl)c(-c4c[nH]c5ccccc45)n3)C2)cc1 [THZ531]; assay: as above
# [13] = compound: CN1CC[C@H](c2c(O)cc(O)c3c(=O)cc(-c4ccccc4Cl)oc23)[C@H](O)C1 [Flavopiridol]; assay: as above
# [14] = compound: CC(=O)c1c(C)c2cnc(Nc3ccc(N4CCN(CCOCCOCCOCCNC(=O)COc5cccc6c5C(=O)N(C5CCC(=O)NC5=O)C6=O)CC4)cn3)nc2n(C2CCCC2)c1=O [BSJ-03-123]; assay: as above
# [15] = compound: CC(=O)c1c(C)c2cnc(Nc3ccc(N4CCNCC4)cn3)nc2n(C2CCCC2)c1=O; assay: as above
# [16] = compound: CCOc1cc2ncc(C#N)c(Nc3ccc(OCc4ccccn4)c(Cl)c3)c2cc1NC(=O)/C=C/CN(C)C [Neratinib/HKI272]; assay: as above
# 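Throughout, for GR50, 72 h: breast cancer and non-malignant breast epithelial cell lines, Deep Dye Drop or Dye Drop imaging, nine half-log doses, GR normalized to time-zero plates and DMSO-only controls.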
cell line,measurement,setting,value
PDX1258,"GR50, 72 h",[1],2.08 µM
same,"GR50, 72 h",[2],1.7 µM
same,"GR50, 72 h",[3],0.0116 µM
same,"GR50, 72 h",[4],> 10 µM
same,"GR50, 72 h",[5],> 10 µM
same,"GR50, 72 h",[6],0.00914 µM
same,increase in dead-cell fraction,[7]; 0.0001 µM,-0.0003
same,increase in dead-cell fraction,[7]; 0.0003162 µM,-0.0056
same,increase in dead-cell fraction,[7]; 0.001 µM,-0.0037
same,increase in dead-cell fraction,[7]; 0.003162 µM,0.0067
same,increase in dead-cell fraction,[7]; 0.01 µM,0.0568
same,increase in dead-cell fraction,[7]; 0.03162 µM,0.537
same,increase in dead-cell fraction,[7]; 0.1 µM,0.662
same,increase in dead-cell fraction,[7]; 0.3162 µM,0.643
same,increase in dead-cell fraction,[7]; 1 µM,0.658
same,increase in dead-cell fraction,[8]; 0.001 µM,-0.0077
same,increase in dead-cell fraction,[8]; 0.003162 µM,0.003
same,increase in dead-cell fraction,[8]; 0.01 µM,-0.0078
same,increase in dead-cell fraction,[8]; 0.03162 µM,-0.0297
same,increase in dead-cell fraction,[8]; 0.1 µM,-0.0249
same,increase in dead-cell fraction,[8]; 0.3162 µM,0.0184
same,increase in dead-cell fraction,[8]; 1 µM,-0.0032
same,increase in dead-cell fraction,[8]; 3.162 µM,0.0025
same,increase in dead-cell fraction,[8]; 10 µM,0.0066
same,increase in dead-cell fraction,[9]; 0.001 µM,0.0001
same,increase in dead-cell fraction,[9]; 0.003162 µM,-0.0098
same,increase in dead-cell fraction,[9]; 0.01 µM,-0.0015
same,increase in dead-cell fraction,[9]; 0.03162 µM,-0.003
same,increase in dead-cell fraction,[9]; 0.1 µM,-0.0037
same,increase in dead-cell fraction,[9]; 0.3162 µM,0.0003
same,increase in dead-cell fraction,[9]; 1 µM,0.0382
same,increase in dead-cell fraction,[9]; 3.162 µM,0.142
same,increase in dead-cell fraction,[9]; 10 µM,0.354
same,increase in dead-cell fraction,[10]; 0.001 µM,0.019
same,increase in dead-cell fraction,[10]; 0.003162 µM,0.0602
same,increase in dead-cell fraction,[10]; 0.01 µM,0.0734
same,increase in dead-cell fraction,[10]; 0.03162 µM,0.107
same,increase in dead-cell fraction,[10]; 0.1 µM,0.033
same,increase in dead-cell fraction,[10]; 0.3162 µM,0.165
same,increase in dead-cell fraction,[10]; 1 µM,0.153
same,increase in dead-cell fraction,[10]; 3.162 µM,0.153
same,increase in dead-cell fraction,[10]; 10 µM,0.298
same,increase in dead-cell fraction,[11]; 0.0001 µM,-0.0269
same,increase in dead-cell fraction,[11]; 0.0003162 µM,0.0089
same,increase in dead-cell fraction,[11]; 0.001 µM,-0.01
same,increase in dead-cell fraction,[11]; 0.003162 µM,-0.0015
same,increase in dead-cell fraction,[11]; 0.01 µM,0.0153
same,increase in dead-cell fraction,[11]; 0.03162 µM,0.188
same,increase in dead-cell fraction,[11]; 0.1 µM,0.237
same,increase in dead-cell fraction,[11]; 0.3162 µM,0.304
same,increase in dead-cell fraction,[11]; 1 µM,0.398
same,increase in dead-cell fraction,[12]; 0.0001 µM,0.0134
same,increase in dead-cell fraction,[12]; 0.0003162 µM,-0.0091
same,increase in dead-cell fraction,[12]; 0.001 µM,-0.0052
same,increase in dead-cell fraction,[12]; 0.003162 µM,-0.0071
same,increase in dead-cell fraction,[12]; 0.01 µM,-0.0127
same,increase in dead-cell fraction,[12]; 0.03162 µM,0.0327
same,increase in dead-cell fraction,[12]; 0.1 µM,0.239
same,increase in dead-cell fraction,[12]; 0.3162 µM,0.246
same,increase in dead-cell fraction,[12]; 1 µM,0.27
same,increase in dead-cell fraction,[13]; 0.0001 µM,0.0131
same,increase in dead-cell fraction,[13]; 0.0003162 µM,-0.0092
same,increase in dead-cell fraction,[13]; 0.001 µM,-0.0132
same,increase in dead-cell fraction,[13]; 0.003162 µM,-0.0012
same,increase in dead-cell fraction,[13]; 0.01 µM,0.0042
same,increase in dead-cell fraction,[13]; 0.03162 µM,-0.0156
same,increase in dead-cell fraction,[13]; 0.1 µM,0.0246
same,increase in dead-cell fraction,[13]; 0.3162 µM,0.0926
same,increase in dead-cell fraction,[13]; 1 µM,0.288
same,increase in dead-cell fraction,[14]; 0.001 µM,-0.0086
same,increase in dead-cell fraction,[14]; 0.003162 µM,0.027
same,increase in dead-cell fraction,[14]; 0.01 µM,-0.004
same,increase in dead-cell fraction,[14]; 0.03162 µM,-0.0154
same,increase in dead-cell fraction,[14]; 0.1 µM,0.0044
same,increase in dead-cell fraction,[14]; 0.3162 µM,-0.0026
same,increase in dead-cell fraction,[14]; 1 µM,-0.001
same,increase in dead-cell fraction,[14]; 3.162 µM,-0.0102
same,increase in dead-cell fraction,[14]; 10 µM,0.284
same,increase in dead-cell fraction,[15]; 0.0003162 µM,0.0009
same,increase in dead-cell fraction,[15]; 0.001 µM,-0.0052
same,increase in dead-cell fraction,[15]; 0.003162 µM,-0.0004
same,increase in dead-cell fraction,[15]; 0.01 µM,0.0095
same,increase in dead-cell fraction,[15]; 0.03162 µM,0.0043
same,increase in dead-cell fraction,[15]; 0.1 µM,0.0062
same,increase in dead-cell fraction,[15]; 0.3162 µM,-0.0028
same,increase in dead-cell fraction,[15]; 1 µM,-0.0014
same,increase in dead-cell fraction,[15]; 3.162 µM,0.0061
same,increase in dead-cell fraction,[16]; 0.0003162 µM,0.0046
same,increase in dead-cell fraction,[16]; 0.001 µM,0.0126
same,increase in dead-cell fraction,[16]; 0.003162 µM,0.0014
same,increase in dead-cell fraction,[16]; 0.01 µM,-0.0047
same,increase in dead-cell fraction,[16]; 0.03162 µM,0.0084
same,increase in dead-cell fraction,[16]; 0.1 µM,0.0159
same,increase in dead-cell fraction,[16]; 0.3162 µM,0.0244
same,increase in dead-cell fraction,[16]; 1 µM,0.0372
same,increase in dead-cell fraction,[16]; 3.162 µM,0.118
